Experimental data: US20230192617A1, “AZABICYCLIC(THIO)AMIDES AS FUNGICIDAL COMPOUNDS” (Bayer CropScience Aktiengesellschaft, priority 2020, published 2023)
Blank lines part the entries; values can stand above or below the molecule they belong to.

Key:
[1] = Measurement of Log P values by HPLC on reversed phase columns (EEC directive 79/831 Annex V.A8); type: physicochemical; conditions: reversed phase HPLC column
Method in brief: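 Log P derived from retention on reversed-phase columns (EEC directive 79/831 Annex V.A8), LC-UV, acetonitrile gradient 10% to 95% against water containing 0.1% formic acid, 0.001 M ammonium acetate, or 0.1% phosphoric acid; several values per method separated by "+".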

[2] = system: Alternaria brassicae; test: In vivo preventive test on Alternaria brassicae (leaf spot on radish or cabbage); conditions: 500 ppm of active ingredient, preventive spray on radish or cabbage, evaluated 3 to 4 days after inoculation, read-out: efficacy
Method in brief: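 Protective spray on young radish or cabbage: actives in water diluted from DMSO/acetone/Tween 80, with solvent-only controls. Leaves were challenged after 24 h with a spore suspension, and plants were held at 100% RH, 20 °C for 3 to 4 days.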

[3] = system: Botrytis cinerea; test: In vivo preventive test on Botrytis cinerea (grey mould); conditions: 500 ppm of active ingredient, preventive spray on gherkin or cabbage, evaluated 4 to 5 days after inoculation, read-out: efficacy
Method in brief: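 Preventive spray on cabbage or gherkin seedlings, with compound formulated in DMSO/acetone/Tween 80 and water-diluted, preceded spore inoculation by 24 hours. Cabbage was held 4 to 5 days at 20° C., 100% relative humidity; gherkin 4 to 5 days at 17° C., 90% relative humidity.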

[4] = system: Pyrenophora teres; test: In vivo preventive test on Pyrenophora teres (net blotch on barley); conditions: 240 h, 500 ppm of active ingredient, preventive spray on barley, evaluated 10 days after inoculation, read-out: efficacy
Procedure: B-3. In Vivo Preventive Test on Pyrenophora Teres (Net Blotch on Barley) [table] The active ingredients were made soluble and homogenized in a mixture of Dimethyl sulfoxide/Acetone/Tween® 80 and then diluted in water to the desired concentration. The young plants of barley were treated by spraying the active ingredient prepared as described above. Control plants were treated only with an aqueous solution of Acetone/Dimethyl sulfoxide/Tween® 80. After 24 hours, the plants were contaminated by spraying the leaves with an aqueous suspension of Pyrenophora teres spores. The contaminated barley plants were incubated for 48 hours at 20° C. and at 100% relative humidity and then for 8 days at 20° C. and at 70-80% relative humidity.

[5] = system: Sphaerotheca fuliginea; test: In vivo preventive test on Sphaerotheca fuliginea (powdery mildew on cucurbits); conditions: Podosphaera fuliginea, 192 h; 500 ppm of active ingredient; preventive spray on gherkin; evaluated 8 days after inoculation; read-out: efficacy
Method in brief: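 This is a preventive spray test on gherkin seedlings, with compound formulated in DMSO/acetone/Tween 80 in water and solvent-only controls. Spore inoculation followed one day after treatment. Incubation lasted 8 days at 20 °C, 70–80% RH.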

[6] = system: Colletotrichum lindemuthianum; test: In vivo preventive test on Colletotrichum lindemuthianum (leaf spot on bean); conditions: 168 h, 500 ppm of active ingredient, preventive spray on bean, evaluated 7 days after inoculation, read-out: efficacy
Procedure: B-5. In Vivo Preventive Test on Colletotrichum lindemuthianum (Leaf Spot on Bean) [table] The active ingredients were made soluble and homogenized in a mixture of Dimethyl sulfoxide/Acetone/Tween® 80 and then diluted in water to the desired concentration. The young plants of bean were treated by spraying the active ingredient prepared as described above. Control plants were treated only with an aqueous solution of Acetone/Dimethyl sulfoxide/Tween® 80. After 24 hours, the plants were contaminated by spraying the leaves with an aqueous suspension of Colletotrichum lindemuthianum spores. The contaminated bean plants were incubated for 24 hours at 20° C. and at 100% relative humidity and then for 6 days at 20° C. and at 90% relative humidity.

[7] = system: Alternaria alternata; test: Alternaria alternata in vitro cell test; type: cell-based; conditions: 120 h, 20 ppm of active ingredient, liquid culture, 5 days incubation, spectrometric measurement of mycelium growth, read-out: efficacy (inhibition of fungal growth)
Method in brief: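 Spectrometric readout of mycelial growth after 5-day incubation gauged compound effects on spore germination and growth of A. alternata in liquid medium. Compounds were delivered in DMSO at ≤1% final. Absorbance was compared with untreated controls to give inhibition.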

[8] = system: Colletotrichum lindemuthianum; test: B-8. Colletotrichum lindemuthianum in vitro cell test; type: cell-based; conditions: 144 h, 20 ppm of active ingredient, 6 days incubation, liquid culture, absorbance, read-out: efficacy (inhibition of fungal growth)
Method in brief: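 Liquid-culture germination/growth test: compounds in ≤1% final DMSO were added to spore-containing medium. Fungal growth was quantified spectrophotometrically after 6 days of incubation and expressed as inhibition versus untreated controls.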

[9] = system: Botrytis cinerea; test: B-11. Botrytis cinerea in vitro cell test; type: cell-based; conditions: 144 h, 20 ppm of active ingredient, 6 days incubation, liquid culture, absorbance, read-out: efficacy (inhibition of fungal growth)
Method in brief: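 B. cinerea spores were grown in liquid culture with compound (DMSO ≤1% final). Mycelium growth was measured spectrometrically after 6 days, with inhibition taken as absorbance relative to untreated control wells.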

[10] = system: Pyrenophora teres; test: B-10. Pyrenophora teres in vitro cell test; type: cell-based; conditions: 144 h, 20 ppm of active ingredient, 6 days incubation, liquid culture, absorbance, read-out: efficacy (inhibition of fungal growth)
Method in brief: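 Liquid-culture assay on a P. teres spore suspension with compounds added to the medium from DMSO solutions, final DMSO ≤1%. Mycelium growth read spectrometrically after 6 days. Inhibition calculated from absorbance against untreated control wells.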

[11] = method [a]: LC-UV, acidic range, 0.1% formic acid in water and acetonitrile as eluent

Compound: Cc1ccc2c(c1)CCC[C@@H]2NC(=O)c1c(Oc2cccc(C(F)(F)F)c2)cnc2c1OCCO2 (racemic) [I-112]
chromatographic logP [1, 11]: 3.8
chromatographic logP ([1]; method [b]: LC-UV, neutral range, 0.001 molar ammonium acetate solution in water and acetonitrile as eluent): 3.79
pest or weed control at 500 ppm [2]: 90 to 100%
pest or weed control at 500 ppm [3]: 90 to 100%
pest or weed control at 500 ppm [4]: 80 to 89%
pest or weed control at 500 ppm [5]: 90 to 100%
pest or weed control at 500 ppm [6]: 90 to 100%
inhibition at 20 ppm [7]: 90 to 100%
inhibition at 20 ppm [8]: 90 to 100%

Compound: Cc1ccc(C(F)(F)CNC(=O)c2c(Oc3cccc(C4CC4)c3F)nnc3c2N[C@@H](O)CC3)c(C)c1 (racemic) [I-116]
chromatographic logP [1, 11]: 3.74
pest or weed control at 500 ppm [2]: 90 to 100%
pest or weed control at 500 ppm [3]: 90 to 100%
pest or weed control at 500 ppm [4]: 80 to 89%
pest or weed control at 500 ppm [5]: 90 to 100%
pest or weed control at 500 ppm [6]: 90 to 100%
inhibition at 20 ppm [7]: 90 to 100%
inhibition at 20 ppm [8]: 90 to 100%

Compound: Cc1ccc(C(F)(F)CNC(=O)c2c(Oc3cccc(C(F)(F)F)c3)cnc3ccoc23)c(C)c1 [I-066, N-[2-(2,4-dimethylphenyl)-2,2-difluoro-ethyl]-6-[3-(trifluoro-methyl)phenoxy]furo[3,2-b]pyridine-7-carboxamide]
chromatographic logP [1, 11]: 4.14
pest or weed control at 500 ppm [2]: 90 to 100%
pest or weed control at 500 ppm [3]: 90 to 100%
pest or weed control at 500 ppm [4]: 70 to 79%
pest or weed control at 500 ppm [5]: 90 to 100%
inhibition at 20 ppm [7]: 90 to 100%
inhibition at 20 ppm [8]: 90 to 100%
inhibition at 20 ppm [10]: 90 to 100%
inhibition at 20 ppm [9]: 90 to 100%

Compound: Cc1ccc(CCNC(=O)c2c(Oc3cccc(C(F)(F)F)c3)nnc3ccccc23)c(C)c1 [I-230]
pest or weed control at 500 ppm [2]: 90 to 100%
pest or weed control at 500 ppm [3]: 90 to 100%
pest or weed control at 500 ppm [4]: 80 to 89%
pest or weed control at 500 ppm [5]: 90 to 100%
inhibition at 20 ppm [7]: 90 to 100%
inhibition at 20 ppm [8]: 90 to 100%
inhibition at 20 ppm [9]: 90 to 100%

Compound: Cc1ccc(CCNC(=O)c2c(Oc3cccc(C(F)(F)F)c3)nnc3ccsc23)c(C)c1 [I-231]
chromatographic logP [1, 11]: 4.77
pest or weed control at 500 ppm [2]: 90 to 100%
pest or weed control at 500 ppm [4]: 70 to 79%
pest or weed control at 500 ppm [5]: 90 to 100%
inhibition at 20 ppm [9]: 80 to 89%

The next lines start with results.

chromatographic logP [1, 11]: 4.01
Compound: O=C(NC[C@H](F)c1ccc(Br)cc1Cl)c1c(Oc2cccc(C(F)F)c2)nnc2ccccc12 (racemic) [I-029]
pest or weed control at 500 ppm [2]: 90 to 100%
pest or weed control at 500 ppm [3]: 90 to 100%
pest or weed control at 500 ppm [4]: 70 to 79%
pest or weed control at 500 ppm [5]: 70 to 79%
pest or weed control at 500 ppm [6]: 90 to 100%
inhibition at 20 ppm [7]: 90 to 100%
inhibition at 20 ppm [8]: 90 to 100%

chromatographic logP [1, 11]: 4.05
Compound: Cc1ccc([C@@H](F)CNC(=O)c2c(Oc3cccc(Cl)c3)nnc3ccccc23)cc1C (racemic) [I-048]
pest or weed control at 500 ppm [2]: 90 to 100%
pest or weed control at 500 ppm [3]: 90 to 100%
pest or weed control at 500 ppm [4]: 90 to 100%
pest or weed control at 500 ppm [6]: 90 to 100%
inhibition at 20 ppm [7]: 90 to 100%
inhibition at 20 ppm [8]: 90 to 100%
inhibition at 20 ppm [9]: 90 to 100%

chromatographic logP [1, 11]: 3.77
Compound: O=C(NC[C@H](F)c1ccc(Cl)cc1Cl)c1c(Oc2cccc(C(F)(F)F)c2)cnc2c1OCCO2 (racemic) [I-108]
pest or weed control at 500 ppm [2]: 90 to 100%
pest or weed control at 500 ppm [3]: 90 to 100%
pest or weed control at 500 ppm [4]: 90 to 100%
pest or weed control at 500 ppm [5]: 90 to 100%
pest or weed control at 500 ppm [6]: 90 to 100%
inhibition at 20 ppm [7]: 90 to 100%
inhibition at 20 ppm [8]: 90 to 100%

chromatographic logP [1, 11]: 4.2
Compound: Cc1ccc(C(F)(F)CNC(=O)c2c(Oc3cccc(Cl)c3)nnc3ccccc23)c(C)c1 [I-024]
pest or weed control at 500 ppm [2]: 90 to 100%
pest or weed control at 500 ppm [3]: 90 to 100%
pest or weed control at 500 ppm [4]: 70 to 79%
pest or weed control at 500 ppm [5]: 90 to 100%
pest or weed control at 500 ppm [6]: 90 to 100%
inhibition at 20 ppm [7]: 90 to 100%
inhibition at 20 ppm [8]: 90 to 100%

chromatographic logP [1, 11]: 4.45
Compound: Cc1ccc(C(F)(F)CNC(=O)c2c(Oc3cccc(C4CC4)c3)nnc3ccccc23)c(C)c1 [I-218]
pest or weed control at 500 ppm [2]: 90 to 100%
pest or weed control at 500 ppm [3]: 90 to 100%
pest or weed control at 500 ppm [4]: 80 to 89%
pest or weed control at 500 ppm [6]: 90 to 100%
inhibition at 20 ppm [7]: 90 to 100%
inhibition at 20 ppm [8]: 90 to 100%
inhibition at 20 ppm [10]: 90 to 100%
inhibition at 20 ppm [9]: 90 to 100%
